Test results: patent US20050159476A1, “Pharmaceutical composition for preventing or treating respiratory disease” (Chugai Seiyaku Kabushiki Kaisha, priority 2002, published 2005)
Read-outs that look alike come from different tables or passages of the source.

How the values were obtained:
[1] = tested on: human A549 cells; assay: Protective effect against cell injury induced by oxidized LDL in human A549 cells (LDH leakage); assay type: cell-based; conditions: for inhibition at 3 µM / inhibition at 30 µM: Homo sapiens, oxidized LDL 100 μg/mL, 24 hours, average ± standard error; for inhibition at 3 µM: 3 μmol/L test compound; for inhibition at 30 µM: 30 μmol/L test compound; for % cell protection as a function of test compound concentration (FIG. 1): test compound added immediately before oxidized LDL, Test Example 2
Method: (§1) Oxidized LDL was prepared by maintaining 1 mg/mL of rabbit LDL at 37° C for 24 hours in PBS (-) containing 10 μmol/L CUSO4.
Human A549 cells used in this test are available under accession number ATCC-CCL-185 and have the properties of type II alveolar epithelial cells (Lieber M, Smith B, Szakal A, Nelson-Rees W, Todaro G., A continuous tumor-cell line from a human lung carcinoma with properties of type II alveolar epithelial cells. Int J Cancer Jan. 15, 1976; 17(1):62-70).
(§2) These cells were dispersed in F12K medium containing 10% FBS and plated on a 24-well plate at 2.5×10^4 cells/500 μL/well. These cells were incubated at 37° C. for 18 hours and then the medium was replaced by F12K medium containing 2% FBS. At this time, 2.5 μL of a solution or a suspension of each test compound in ethanol was added at the concentrations of the test compound of 3 μmol/L and 30 μmol/L in each well.
(§3) After incubation at 37° C. for 6 hours, 50 μL of a suspension of oxidized LDL was added per well at the concentration of oxidized LDL of 100 μg/mL in each well.
(§4) After incubation at 37° C. for 24 hours, 200 μL of the supernatant was collected from each well and the amount of lactate dehydrogenase (LDH) leaked from cells was determined by the SFBC method.
(§5) Further test was carried out in the same manner as the above test with the exception that each test compound was added to the cell culture after incubation for 6 hours following medium replacement and immediately before oxidized LDL was added thereto rather than when the medium was replaced with F12K medium containing 2% FBS.
(§6) Higher LDH levels in the supernatant indicate that greater cell injury is induced by oxidized LDL. Separately, one experiment was carried out using a well in the same manner as the above test with the exception that no test compound was added to the well. The level of LDH in this well was defined as 0% cell protection. In addition, other experiment was carried out using another well without adding either test compound or oxidized LDL but with adding saline instead. The level of LDH in this well was defined as 100% cell protection. These levels of LDH were used for calculating cell protection of each test compound used in the above test.
Probucol and α-tocopherol were tested for comparison with the compounds of the present invention. In this test, the test compounds were added to the cell culture after incubation for 6 hours following medium replacement and immediately before oxidized LDL was added.

[2] = tested on: normal human bronchial/tracheal epithelial cells (NHBE w/RA); assay: Protective effect against cell injury induced by oxidized LDL in normal human bronchial/tracheal epithelial cells (LDH leakage); assay type: cell-based; conditions: 24 h, average ± standard error; for inhibition at 3 µM: 3 μmol/L test compound; for inhibition at 30 µM: 30 μmol/L test compound
Method: as §1, §2, §3, §4, §5, §6
This test example was carried out in a similar manner to test example 1 except that human A549 cells were replaced with normal human bronchial/tracheal epithelial cells (NHBE w/RA: BioWhittaker Co.), cell culture medium was changed from F12K medium containing 10% FBS to BEGM® medium, and the replacement of medium was not made.

[3] = read-out: % Cell protection in the case where oxidized LDL was added 6 hrs after adding test compound
[4] = read-out: % Cell protection in the case where oxidized LDL was added immediately after adding test compound

| Structure (SMILES) | inhibition at 3 µM [1, 3] [%] | inhibition at 3 µM [1, 4] [%] | inhibition at 30 µM [1, 4] [%] | inhibition at 3 µM [2, 3] [%] | inhibition at 3 µM [2, 4] [%] | inhibition at 30 µM [2, 4] [%] | inhibition at 30 µM [1, 3] [%] | inhibition at 30 µM [2, 3] [%] | % cell protection as a function of test compound concentration (FIG. 1) [1] |
| --- | --- | --- | --- | --- | --- | --- | --- | --- | --- |
| CCCCCC1(CCCCC)Cc2c(cc(C)c(O)c2C)O1 [Compound 17, 4,6-dimethyl-2,2-di-n-pentyl-5-hydroxy-2,3-dihydrobenzofuran] | 97.8 ± 1.4 | 97.7 ± 1.1 | 98.1 ± 3.6 | 44.8 ± 5.9 | 51 ± 5 | 57.6 ± 0.6 | – | – | – |
| CC(C)(C)c1cc2c(c(C(C)(C)C)c1O)CC1(CCCCCC1)O2 [Compound 7, 4,6-di-t-butyl-5-hydroxy-2,3-dihydrobenzofuran-2-spiro-1′-cycloheptane] | 1.6 ± 6 | -0.8 ± 2.8 | 98.4 ± 1.1 | 7.7 ± 3.6 | 11.3 ± 1.1 | 73.4 ± 0.4 | 98.2 ± 2.1 | 58.7 ± 5.1 | – |
| Cc1cc2c(c(C)c1O)CC(C)(C)O2 [Compound 15, 5-hydroxy-2,2,4,6-tetramethyl-2,3-dihydrobenzofuran] | 30 ± 10.2 | 36.1 ± 14.1 | 99.6 ± 0.7 | 45.9 ± 4.5 | 40.8 ± 3.3 | 70.6 ± 4.9 | 100.6 ± 0.9 | 79.5 ± 6.4 | – |
| CC(C)(C)c1cc2c(c(C(C)(C)C)c1O)CC1(CCCCC1)O2 [Compound 10, 4,6-di-t-butyl-5-hydroxy-2,3-dihydrobenzofuran-2-spiro-1′-cyclohexane] | -0.7 ± 1.5 | 0.9 ± 1.9 | 96.9 ± 4.8 | 5.3 ± 2.6 | 13.1 ± 6.4 | 57 ± 2.5 | 97.8 ± 2.1 | 37.3 ± 4.3 | – |
| CC1(C)Cc2c(c(C(C)(C)C)cc(O)c2C(C)(C)C)O1 [Compound 16, 4,7-di-t-butyl-5-hydroxy-2,2-dimethyl-2,3-dihydrobenzofuran] | 100.3 ± 1 | 99.1 ± 0.9 | 98.4 ± 0.6 | 54.9 ± 3.4 | 62.6 ± 1.6 | 42 ± 2.2 | – | – | – |
| CC(C)(C)c1cc2c(c(C(C)(C)C)c1O)CCO2 [Compound 1, 4,6-di-t-butyl-5-hydroxy-2,3-dihydrobenzofuran] | 11.3 ± 1.6 | 40.4 ± 8.3 | 98.8 ± 0.2 | 5.9 ± 4.7 | 35.6 ± 16.8 | 59.2 ± 7.6 | 99.6 ± 0.9 | 74.7 ± 1.4 | – |
| CC(C)(C)c1cc2c(c(C(C)(C)C)c1O)CC1(CCOCC1)O2 [Compound 8, 4,6-di-t-butyl-5-hydroxy-2,3-dihydrobenzofuran-2-spiro-4′-tetrahydropyran] | 10.6 ± 6.2 | 10.8 ± 5.2 | 93.6 ± 2.9 | 10.1 ± 6 | 13.2 ± 1.4 | 68.9 ± 0.8 | 95 ± 5.3 | 74.3 ± 1.5 | – |
| CC(C)(C)c1cc2c(c(C(C)(C)C)c1O)CC1(CCSCC1)O2 [Compound 11, 4,6-di-t-butyl-5-hydroxy-2,3-dihydrobenzofuran-2-spiro-4′-tetrahydrothiopyran] | 3.5 ± 2.6 | 4.6 ± 2.6 | 98.5 ± 0.8 | 3 ± 3.2 | 7.5 ± 7.6 | 40.9 ± 5.3 | 99.3 ± 1.1 | 52 ± 2.2 | – |
| CC(C)(C)c1cc2c(c(C(C)(C)C)c1O)CC1(CCCC1)O2 [Compound 9, 4,6-di-t-butyl-5-hydroxy-2,3-dihydrobenzofuran-2-spiro-1′-cyclopentane] | -1.6 ± 4.4 | -1.5 ± 4.1 | 99.2 ± 2.2 | 3.7 ± 6.7 | 6.1 ± 1.1 | 71.1 ± 2.3 | 98.5 ± 1.8 | 18.1 ± 2.3 | – |
| CC(C)(C)c1cc2c(cc1O)CC1(CCCCCC1)O2 [Compound 18, 6-t-butyl-5-hydroxy-2,3-dihydrobenzofuran-2-spiro-1′-cycloheptane] | 98.7 ± 1.3 | 96.2 ± 0.4 | 97.4 ± 1 | 55.7 ± 3.1 | 46.4 ± 1.4 | 35.5 ± 1.9 | – | – | – |
| CC(C)(C)c1cc2c(c(C(C)(C)C)c1O)CC1(CCOCC1)S2 [Compound 14, 4,6-di-t-butyl-5-hydroxy-2,3-dihydrobenzothiophene-2-spiro-4′-tetrahydropyran] | 7 ± 3.5 | 3.2 ± 1.3 | 98.9 ± 2.4 | -0.5 ± 1.9 | -1 ± 5.3 | 60.6 ± 4 | 96.1 ± 1.2 | 63.3 ± 0.8 | – |
| CC1(C)Cc2c(cc(C(C)(C)C)c(O)c2C(C)(C)C)S1 [Compound 12, 4,6-di-t-butyl-5-hydroxy-2,2-dimethyl-2,3-dihydrobenzothiophene] | 9.9 ± 6.8 | 11.1 ± 7.4 | 96.6 ± 2 | 10.9 ± 2.1 | 10.9 ± 3.8 | 48.7 ± 1.2 | 98.7 ± 2.9 | 21.2 ± 2 | – |
| CC(C)(C)c1cc2c(c(C(C)(C)C)c1O)CC(Cc1ccccc1)(Cc1ccccc1)O2 [Compound 4, 4,6-di-t-butyl-2,2-dibenzyl-5-hydroxy-2,3-dihydrobenzofuran] | 6.1 ± 2.5 | 5.3 ± 2.5 | 95.3 ± 3.4 | 12.3 ± 4.3 | 9.1 ± 2.3 | 53.5 ± 3.1 | 94.1 ± 0.4 | 47.8 ± 1.6 | – |
| CC(C)(C)c1cc2c(c(C(C)(C)C)c1O)CC1(CCCCC1)S2 [Compound 13, 4,6-di-t-butyl-5-hydroxy-2,3-dihydrobenzothiophene-2-spiro-1′-cyclohexane] | 10.8 ± 3.9 | 11.3 ± 3.5 | 97.1 ± 4.3 | -3.4 ± 7.1 | -4.8 ± 2.9 | 49.2 ± 1.7 | 98 ± 1 | 37.8 ± 0.7 | – |
| CC1(C(=O)O)Cc2c(cc(C(C)(C)C)c(O)c2C(C)(C)C)O1 (stereo not drawn) [Compound 6, 4,6-di-t-butyl-5-hydroxy-2-methyl-2,3-dihydrobenzofuran-2-carboxylic acid] | 8.5 ± 0.8 | 9.1 ± 1.2 | 46.7 ± 2.9 | -0.9 ± 1.8 | 0.3 ± 2 | 30.3 ± 3.1 | 65.3 ± 2.9 | 44.8 ± 3.2 | – |
| CC1(C)Cc2c(cc(C(C)(C)C)c(O)c2C(C)(C)C)O1 [Compound 2, 4,6-di-t-butyl-5-hydroxy-2,2-dimethyl-2,3-dihydrobenzofuran] | 0.5 ± 1.3 | 16.9 ± 10.5 | 100 ± 1.5 | 32.8 ± 2.9 | 71.1 ± 1.3 | 76.1 ± 3.4 | 99.5 ± 1.1 | 27.7 ± 2.7 | – |
| CC(C)(Sc1cc(C(C)(C)C)c(O)c(C(C)(C)C)c1)Sc1cc(C(C)(C)C)c(O)c(C(C)(C)C)c1 [probucol, reference compound] | – | – | – | – | – | – | – | – | does not increase or only slowly increases |
| Cc1c(C)c2c(c(C)c1O)CC[C@@](C)(CCC[C@H](C)CCC[C@H](C)CCCC(C)C)O2 [α-tocopherol, reference compound] | – | – | – | – | – | – | – | – | does not increase or only slowly increases |
| CC1(CN)Cc2c(cc(C(C)(C)C)c(O)c2C(C)(C)C)O1 (stereo not drawn) [Compound 5, 2-aminomethyl-4,6-di-t-butyl-5-hydroxy-2-methyl-2,3-dihydrobenzofuran] | 6.4 ± 0.8 | 6.9 ± 3.1 | 97.1 ± 0.8 | 6.3 ± 4.5 | 0.8 ± 4.6 | 48.3 ± 8.1 | 96.5 ± 0.5 | 33.6 ± 1.8 | – |
